Experimental data as given in the NIST ThermoML archive (doi:10.1016/j.jct.2008.05.014).

Experiments:
[1] = xn = mol fraction of the nth substance listed; details: Liquid, x1 = 1; for speed of sound: Pulse-echo method
[2] = Liquid; for speed of sound: Pulse-echo method
[3] = refractive index (Na D-line) (dimensionless); details: 298.15 K; 101.33 kPa; Liquid; Standard Abbe refractometry

CCCCCCC [heptane] + CCCCCCCCCCCC
[1]
Details	mass density [kg/m3]	speed of sound [m/s]
292.83 K, 101 kPa	–	1153.2
292.88 K, 45590 kPa	–	1417.7
292.88 K, 60790 kPa	–	1485.5
292.88 K, 75990 kPa	–	1547.2
292.88 K, 91180 kPa	–	1605
292.88 K, 101320 kPa	–	1641.2
292.89 K, 15200 kPa	–	1257
292.89 K, 30390 kPa	–	1342.4
293.15 K, 101 kPa	683.803	–
298.12 K, 101 kPa	–	1130.1
298.15 K, 101 kPa	679.548	–
298.15 K, 15200 kPa	–	1236.7
298.15 K, 30390 kPa	–	1323.7
298.15 K, 45590 kPa	–	1400.1
298.15 K, 60790 kPa	–	1469.1
298.15 K, 91180 kPa	–	1589.7
298.15 K, 101320 kPa	–	1626.4
298.16 K, 75990 kPa	–	1531.6
303.1 K, 101 kPa	–	1108.5
303.13 K, 60790 kPa	–	1453.5
303.13 K, 91180 kPa	–	1575.6
303.13 K, 101320 kPa	–	1612.6
303.14 K, 30390 kPa	–	1306.4
303.14 K, 45590 kPa	–	1383.7
303.14 K, 75990 kPa	–	1517
303.15 K, 101 kPa	675.293	–
303.15 K, 15200 kPa	–	1217.8
308.08 K, 101 kPa	–	1087
308.12 K, 45590 kPa	–	1367.9
308.12 K, 75990 kPa	–	1502.7
308.12 K, 91180 kPa	–	1561.5
308.12 K, 101320 kPa	–	1599.1
308.13 K, 15200 kPa	–	1199.2
308.13 K, 30390 kPa	–	1289.3
308.13 K, 60790 kPa	–	1438.4
308.15 K, 101 kPa	671.015	–
313.06 K, 101 kPa	–	1065.6
313.1 K, 30390 kPa	–	1272.5
313.1 K, 45590 kPa	–	1352.5
313.1 K, 60790 kPa	–	1423.8
313.1 K, 75990 kPa	–	1488.7
313.1 K, 91180 kPa	–	1548.1
313.1 K, 101320 kPa	–	1585.7
313.11 K, 15200 kPa	–	1180.7
313.15 K, 101 kPa	666.684	–
318.15 K, 101 kPa	662.324	–
318.28 K, 15200 kPa	–	1161.8
318.28 K, 30390 kPa	–	1255.3
318.28 K, 45590 kPa	–	1336.5
318.28 K, 60790 kPa	–	1408.6
318.28 K, 75990 kPa	–	1474.4
318.28 K, 91180 kPa	–	1534.3
318.28 K, 101320 kPa	–	1572.3
318.35 K, 101 kPa	–	1043

CCCCCCC [heptane]
[2]
Details	mass density [kg/m3]	speed of sound [m/s]
292.83 K, 101 kPa	–	1153.2
292.88 K, 45590 kPa	–	1417.7
292.88 K, 60790 kPa	–	1485.5
292.88 K, 75990 kPa	–	1547.2
292.88 K, 91180 kPa	–	1605
292.88 K, 101320 kPa	–	1641.2
292.89 K, 15200 kPa	–	1257
292.89 K, 30390 kPa	–	1342.4
293.15 K, 101 kPa	683.803	–
298.12 K, 101 kPa	–	1130.1
298.15 K, 101 kPa	679.548	–
298.15 K, 15200 kPa	–	1236.7
298.15 K, 30390 kPa	–	1323.7
298.15 K, 45590 kPa	–	1400.1
298.15 K, 60790 kPa	–	1469.1
298.15 K, 91180 kPa	–	1589.7
298.15 K, 101320 kPa	–	1626.4
298.16 K, 75990 kPa	–	1531.6
303.1 K, 101 kPa	–	1108.5
303.13 K, 60790 kPa	–	1453.5
303.13 K, 91180 kPa	–	1575.6
303.13 K, 101320 kPa	–	1612.6
303.14 K, 30390 kPa	–	1306.4
303.14 K, 45590 kPa	–	1383.7
303.14 K, 75990 kPa	–	1517
303.15 K, 101 kPa	675.293	–
303.15 K, 15200 kPa	–	1217.8
308.08 K, 101 kPa	–	1087
308.12 K, 45590 kPa	–	1367.9
308.12 K, 75990 kPa	–	1502.7
308.12 K, 91180 kPa	–	1561.5
308.12 K, 101320 kPa	–	1599.1
308.13 K, 15200 kPa	–	1199.2
308.13 K, 30390 kPa	–	1289.3
308.13 K, 60790 kPa	–	1438.4
308.15 K, 101 kPa	671.015	–
313.06 K, 101 kPa	–	1065.6
313.1 K, 30390 kPa	–	1272.5
313.1 K, 45590 kPa	–	1352.5
313.1 K, 60790 kPa	–	1423.8
313.1 K, 75990 kPa	–	1488.7
313.1 K, 91180 kPa	–	1548.1
313.1 K, 101320 kPa	–	1585.7
313.11 K, 15200 kPa	–	1180.7
313.15 K, 101 kPa	666.684	–
318.15 K, 101 kPa	662.324	–
318.28 K, 15200 kPa	–	1161.8
318.28 K, 30390 kPa	–	1255.3
318.28 K, 45590 kPa	–	1336.5
318.28 K, 60790 kPa	–	1408.6
318.28 K, 75990 kPa	–	1474.4
318.28 K, 91180 kPa	–	1534.3
318.28 K, 101320 kPa	–	1572.3
318.35 K, 101 kPa	–	1043

Details	refractive index
[3]	1.3853

CCCCCCCCCCCC [dodecane]
[2]
Details	mass density [kg/m3]	speed of sound [m/s]
292.87 K, 15200 kPa	–	1384.9
292.87 K, 30390 kPa	–	1457.9
292.87 K, 45590 kPa	–	1524.1
292.87 K, 60790 kPa	–	1584.5
292.87 K, 75990 kPa	–	1640.7
292.87 K, 91180 kPa	–	1692.8
292.87 K, 101320 kPa	–	1725.8
292.89 K, 101 kPa	–	1299.5
293.15 K, 101 kPa	748.921	–
298.15 K, 101 kPa	745.269	–
298.16 K, 101 kPa	–	1278.9
298.16 K, 15200 kPa	–	1365.9
298.16 K, 30390 kPa	–	1440
298.16 K, 45580 kPa	–	1507
298.16 K, 60790 kPa	–	1568
298.16 K, 75990 kPa	–	1625.2
298.16 K, 91180 kPa	–	1677.7
298.16 K, 101320 kPa	–	1711.1
303.14 K, 30390 kPa	–	1423.8
303.14 K, 45590 kPa	–	1491.4
303.14 K, 60790 kPa	–	1553.1
303.14 K, 75990 kPa	–	1610.9
303.14 K, 91180 kPa	–	1664.1
303.14 K, 101320 kPa	–	1697.4
303.15 K, 101 kPa	741.636	1259.3
303.15 K, 15200 kPa	–	1348.5
308.12 K, 101 kPa	–	1240.2
308.13 K, 75990 kPa	–	1596.8
308.13 K, 91180 kPa	–	1650.9
308.14 K, 15200 kPa	–	1331
308.14 K, 30390 kPa	–	1407.6
308.14 K, 45590 kPa	–	1476.3
308.14 K, 60790 kPa	–	1538.6
308.15 K, 101 kPa	738.031	–
313.1 K, 101 kPa	–	1221
313.15 K, 101 kPa	734.369	–
313.21 K, 15200 kPa	–	1313.4
313.21 K, 30390 kPa	–	1391.1
313.21 K, 45590 kPa	–	1460.8
313.21 K, 60790 kPa	–	1524.1
313.21 K, 75990 kPa	–	1582.5
313.21 K, 91180 kPa	–	1637.3
313.21 K, 101320 kPa	–	1671.3
318.15 K, 101 kPa	730.715	–
318.29 K, 15200 kPa	–	1296.2
318.29 K, 30390 kPa	–	1375
318.29 K, 45590 kPa	–	1445.5
318.29 K, 60790 kPa	–	1509.7
318.29 K, 91180 kPa	–	1624.1
318.29 K, 101320 kPa	–	1658.5
318.3 K, 75990 kPa	–	1568.8
318.39 K, 101 kPa	–	1200.9

Details	refractive index
[3]	1.4197
